Results reported in US5747452A, “Method of modulating tumor cell migration using fibronectin type III peptides” (La Jolla Cancer Research Foundation, priority 1995, dated 1998).

Tested on: C11 CHO cells
Test: Migration assay (in vitro wounding assay)
Assay type: cell-based, Chinese Hamster
Settings: 50 μM for 48 hours
Protocol: Migration was tested by using Chinese Hamster Ovary (CHO) cells in an in vitro "wounding" assay as described previously (Giancotti and Ruoslahti, Cell 60,849(1990)). CHO cells are commercially available and have ATCC number CRL 9096. A3 is an overexpressor of the α5 β1 integrin created by cDNA transfection as described in the article cited above. C11 is a control-transfected line expressing only the endogenous CHO α5 β1. As described in Example XIV below, cells were grown in the absence or presence of 50 μM III1 -C for 48 hours, then the culture was "wounded" by removing cells from the plastic dish by scraping the dish with a plastic pipette tip. The migration of the cells into the "wound" path was monitored by photography at various times.
It is known from previous work (see Giancotti and Ruoslahti, (1990), supra) that there is a correlation between an increase in fibronectin matrix assembly and the decrease in tumorigenic phenotype. Since the polypeptides of the present invention including the recombinant polypeptides are able to modulate fibronectin matrix assembly, these proteins were tested to determine if they could modulate the tumorigenic phenotype of cells. […] As a comparison, A3 CHO cells, which do overexpress α5 β1, fibronectin receptors and are less tumorigenic, were grown in parallel. […]

In the case of “III1 -C: Sequence ID No. 11; recombinant protein, residues 600-674 of human fibronectin, from pGEX-2T”, the “effect on cell migration” value is reported as “retardation of their migration”.
